Results as given in PubChem BioAssay (NCI).
Values joined by “and” are separate entries in the source; they are usually repeats but may differ in a detail not shown here. Identical values can stand only once.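 Grown in 96-well plates, cells were treated for 48 hours with each compound at five concentrations. Insufficient inhibition: endpoint recorded as highest concentration tested. GI50 is the concentration that inhibits growth by half. TGI is the concentration that stops growth completely.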

Assays:
Experiment in all cases: inhibition of tumour cell growth, NCI panel, 48 h
[1] = test system: OVCAR-3 ovarian
[2] = test system: CCRF-CEM leukemia
[3] = test system: T-47D breast
[4] = test system: ACHN renal
[5] = test system: OVCAR-5 ovarian
[6] = test system: RPMI-8226 leukemia
[7] = test system: NCI-H226 lung
[8] = test system: UACC-62 melanoma
[9] = test system: SW-620 colon
[10] = test system: 786-0 renal

Structure (SMILES)	GI50 [1]	TGI [1]	GI50 [2]	TGI [2]	GI50 [3]	TGI [3]	GI50 [4]	TGI [4]	GI50 [5]	TGI [5]	GI50 [6]	TGI [6]	GI50 [7]	TGI [7]	GI50 [8]	TGI [8]	GI50 [9]	TGI [9]	GI50 [10]	TGI [10]
COc1ccc(CNC(=O)c2ccc(-c3cc(-c4nnc(C)o4)ccc3C)cc2)cc1	17.1 µM	> 25 µM	> 25 µM	> 25 µM	7.01 µM	> 25 µM	16.3 µM	> 25 µM	> 25 µM	> 25 µM	12.6 µM	> 25 µM	> 20.4 µM	> 25 µM	11.1 µM	> 25 µM	> 25 µM	> 25 µM	> 25 µM	> 25 µM
C/C(N=NC(=S)N1CCCCCC1)=C1\C=CC=CN1O	–	11.8 µM	–	4.93 µM	–	77.7 µM	–	67.6 µM	–	> 100 µM	–	11.1 µM	–	> 90.3 µM	–	24.6 µM	–	> 100 µM	–	> 49.9 µM
C=C[C@@]1(C)CC(=O)[C@]2(O)[C@@]3(C)[C@@H](O)CCC(C)(C)[C@@H]3[C@H](O)[C@@H](OC(C)=O)[C@@]2(C)O1	–	> 100 µM	–	> 100 µM	–	> 100 µM	–	> 100 µM	–	> 100 µM	–	95.4 µM	–	> 100 µM	–	> 100 µM	–	> 100 µM	–	> 100 µM
COc1cc(/C=C2\C(=O)Nc3ccc(Br)cc32)cc(OC)c1OC	5.59 µM	> 56.9 µM	4.82 µM	> 100 µM	3.06 µM	> 100 µM	31.9 µM	> 100 µM	30.6 µM	> 100 µM	1.31 µM	> 41.8 µM	60.9 µM	> 100 µM	5.96 µM	> 100 µM	3.74 µM	> 100 µM	27.2 µM	> 100 µM
C=C1C(=O)C23CC1CCC2C12CO[C@@]3(O)[C@@H](O)C1C(C)(C)C=CC2=O (some centres undefined)	–	2.75 µM	0.759 µM	–	–	33.1 µM	3.36 µM	1.42 µM and 11.5 µM	25 µM	9.96 µM and 40.5 µM	–	21.7 µM	–	12.5 µM	4.89 µM	2.37 µM and 19.3 µM	–	10.2 µM	1.75 µM	1.24 µM and 3.59 µM
COc1ccc(-c2nn(-c3cccc(Cl)c3)cc2/C=C2\C(=N)N(c3ccccc3)N=C2N)cc1	3.09 µM	20.4 µM	0.655 µM	> 58.7 µM	1.81 µM	> 100 µM	0.95 µM	42.6 µM	2.08 µM	> 65.9 µM	0.993 µM	46.2 µM	6.58 µM	> 66.8 µM	0.331 µM	3.75 µM	0.399 µM	20.7 µM	1.35 µM	29.9 µM
Cc1ccc(NCCNCC(O)CO)c2c(=O)c3ccccc3sc12 (centres undefined)	2.15 µM	4.7 µM	1.86 µM	4.55 µM	1.79 µM	4.08 µM	1.29 µM	3.07 µM	1.74 µM	3.67 µM	2.48 µM	6.83 µM	1.65 µM	3.44 µM	1.54 µM	3.08 µM	1.04 µM	2.57 µM	1.37 µM	2.79 µM
CC(=O)Nc1ccc2c(c1)CN1C(=O)c3ccccc3C1=N2	> 100 µM	> 100 µM	> 100 µM	> 100 µM	> 100 µM	> 100 µM	> 100 µM	> 100 µM	> 100 µM	> 100 µM	> 100 µM	> 100 µM	> 100 µM	> 100 µM	> 100 µM	> 100 µM	> 100 µM	> 100 µM	> 100 µM	> 100 µM
